Numbered stars: 1 amine (or outer) side, 2 acyl side, 3 side chain; on linkers, the order of the positions; unused ones are H or OH. Bridge positions count the residues as written; N and C are the ends. Square brackets hold non-standard residues; d marks the D form. Peptide text beside a SMILES is read from it. * marks the point of attachment. C20 diacid = O=C(O)CCCCCCCCCCCCCCCCCCC(=O)*; γGlu = O=C(O)[C@H](CCC(=O)[*:2])N[*:1]; NMeI = CC[C@H](C)[C@H](NC)C(=O)O; Sar = CNCC(=O)O
Key:
[1] = Solubility assessment (turbidity absorbance at 325 nm); type: physicochemical; details: stock 2 mg/ml diluted 1:1, ambient temperature (typically 25°C), n=1; for Solubility, Acetate buffer pH 4: 100 mM acetate buffer pH 4.0; for Solubility, Acetate buffer pH 5: 100 mM acetate buffer pH 5.0; for Solubility, Histidine buffer pH 6: 100 mM histidine buffer pH 6.0; for Solubility, Histidine buffer pH 7: 100 mM histidine buffer pH 7.0; for Solubility, Phosphate buffer pH 6: 100 mM phosphate buffer pH 6.0; for Solubility, Phosphate buffer pH 7: 100 mM phosphate buffer pH 7.0; for Solubility, Phosphate buffer pH 7.5: 100 mM phosphate buffer pH7.5
Summary of the method: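 Read-out: turbidity as absorbance at 325 nm (280 nm also read), single samples, ambient temperature of typically 25°C. Samples were a 1:1 mix of 2 mg/ml stock (water, pH 2.5) with 100 mM acetate, histidine or phosphate buffers spanning pH 4.0–7.5. Cut-off: A325 ≤ 0.02 indicates ≥ 1 mg/ml.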

[2] = target: T1, human calcitonin receptor (hCTR2) (Homo sapiens, UniProt P30988); experiment: hCTR2 assay: induction of cAMP (AlphaScreen cAMP Assay kit) in COS7 cells expressing hCTR2; type: cell-based; details: cAMP induction in COS7 cells expressing hCTR2; average of a minimum of 3 determinations; read-out: hCTR2 EC50
T1 construct: expressed in transfected cells
T1 sequence (P30988 25-474): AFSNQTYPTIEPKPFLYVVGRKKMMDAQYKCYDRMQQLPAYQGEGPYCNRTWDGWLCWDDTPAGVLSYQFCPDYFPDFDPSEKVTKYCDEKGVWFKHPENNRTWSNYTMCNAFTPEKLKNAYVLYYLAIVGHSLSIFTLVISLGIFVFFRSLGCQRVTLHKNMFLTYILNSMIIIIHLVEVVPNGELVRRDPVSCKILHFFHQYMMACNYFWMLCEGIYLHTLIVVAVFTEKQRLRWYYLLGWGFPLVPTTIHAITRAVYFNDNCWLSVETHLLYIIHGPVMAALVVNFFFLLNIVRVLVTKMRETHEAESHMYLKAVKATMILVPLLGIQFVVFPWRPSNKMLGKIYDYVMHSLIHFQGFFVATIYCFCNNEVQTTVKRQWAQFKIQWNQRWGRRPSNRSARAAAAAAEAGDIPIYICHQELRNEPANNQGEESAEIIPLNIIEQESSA
Summary of the method: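 Cells were seeded one day ahead, washed, then exposed to rising peptide concentrations for 15 min at 37° C in the presence of 100 µM IBMX. After lysis for 10 min at room temperature, cAMP was quantified by AlphaScreen and EC50 values derived by 4PL fitting.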

[3] = target: T2, human amylin receptor 3 (hAMYR3) consisting of hCTR2 co-expressed with human Receptor Activity Modifying Protein 3 (hRAMP3) (Homo sapiens, UniProt O60896+P30988); experiment: hAMYR3 assay: induction of cAMP (AlphaScreen cAMP Assay kit) in COS7 cells expressing hAMYR3; type: cell-based; details: cAMP induction in COS7 cells expressing hAMYR3; average of a minimum of 3 determinations; read-out: hAMY R3 EC50
T2 construct: expressed in transfected cells
T2 sequence (P30988 25-474): T1 sequence (P30988 25-474)
T2 sequence (O60896 24-148 partner): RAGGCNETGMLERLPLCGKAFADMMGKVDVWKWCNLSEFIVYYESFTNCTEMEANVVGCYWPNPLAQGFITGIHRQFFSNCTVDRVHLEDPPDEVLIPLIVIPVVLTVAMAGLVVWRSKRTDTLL
Summary of the method: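 cAMP accumulation read by AlphaScreen in lysates of RAMP-naive COS7 cells stably transfected with hCTR2 plus hRAMP3. Cells exposed to peptide dilutions for 15 min, 37° C, with 100 µM IBMX; 4PL fitting gave EC50 and efficacy relative to pramlintide.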

Row | Compound | Solubility, Acetate buffer pH 4 [1] | Solubility, Acetate buffer pH 5 [1] | Solubility, Histidine buffer pH 6 [1] | Solubility, Histidine buffer pH 7 [1] | Solubility, Phosphate buffer pH 6 [1] | Solubility, Phosphate buffer pH 7 [1] | Solubility, Phosphate buffer pH 7.5 [1] | EC50 [2] [nM] | EC50 [3] [nM]
1 | CC[C@H](C)[C@@H](C(=O)N[C@@H](CC(C)C)C(=O)N[C@@H](CO)C(=O)N[C@@H](CO)C(=O)N[C@H](C(=O)N[C@@H](CCC(=O)O)C(=O)N[C@H](C(=O)NCC(=O)N[C@@H](CO)C(=O)N[C@@H](CCC(=O)O)C(=O)N[C@H](C(=O)N1CCC[C@H]1C(N)=O)[C@@H](C)O)C(C)C)[C@@H](C)O)N(C)C(=O)[C@H](C)NC(=O)CN(C)C(=O)[C@H](Cc1ccccc1)NC(=O)[C@H](CO)NC(=O)[C@H](CO)NC(=O)[C@H](CO)NC(=O)[C@H](CO)NC(=O)[C@H](CCCNC(=N)N)NC(=O)[C@H](Cc1c[nH]cn1)NC(=O)[C@H](CC(C)C)NC(=O)[C@H](Cc1ccccc1)NC(=O)[C@H](CCC(=O)O)NC(=O)[C@H](C)NC(=O)[C@H](CC(C)C)NC(=O)[C@H](CCCNC(=N)N)NC(=O)[C@H](CCC(=O)O)NC(=O)[C@@H](NC(=O)[C@H](C)NC(=O)[C@@H]1CSSC[C@H](NC(=O)[C@H](CCCNC(=N)N)NC(=O)CC[C@H](NC(=O)CCCCCCCCCCCCCCCCCCC(=O)O)C(=O)O)C(=O)N[C@@H](CC(=O)O)C(=O)N[C@@H]([C@@H](C)O)C(=O)N[C@@H](C)C(=O)N[C@@H]([C@@H](C)O)C(=O)N1)[C@@H](C)O [Compound 137, [19CD]-isoGlu-RC()DTATC()ATERLAEFLHRSSSSF-Gly(Me)-A-Ile(Me)-LSSTEVGSETP-NH2] ({C20 diacid-γGlu}-RCDTATCATERLAEFLHRSSSSF[Sar]A[NMeI]LSSTEVGSETP-NH2; disulfide 2-7) | SS (SS indicates solubility ≥ 1mg/ml) | SS (SS indicates solubility ≥ 1mg/ml) | SS (SS indicates solubility ≥ 1mg/ml) | SS (SS indicates solubility ≥ 1mg/ml) | SS (SS indicates solubility ≥ 1mg/ml) | SS (SS indicates solubility ≥ 1mg/ml) | SS (SS indicates solubility ≥ 1mg/ml) | 0.24 | 0.86
2 | CC[C@H](C)[C@@H](C(=O)N[C@@H](CC(C)C)C(=O)N[C@@H](CO)C(=O)N[C@@H](CO)C(=O)N[C@H](C(=O)N[C@@H](CCC(=O)O)C(=O)N[C@H](C(=O)NCC(=O)N[C@@H](CO)C(=O)N[C@@H](CCC(=O)O)C(=O)N[C@H](C(=O)N1CCC[C@H]1C(N)=O)[C@@H](C)O)C(C)C)[C@@H](C)O)N(C)C(=O)[C@H](C)NC(=O)CN(C)C(=O)[C@H](Cc1ccccc1)NC(=O)[C@H](CO)NC(=O)[C@H](CO)NC(=O)[C@H](CO)NC(=O)[C@H](CO)NC(=O)[C@H](CCCNC(=N)N)NC(=O)[C@H](Cc1c[nH]cn1)NC(=O)[C@H](CC(C)C)NC(=O)[C@H](Cc1ccccc1)NC(=O)[C@H](CCC(=O)O)NC(=O)[C@H](C)NC(=O)[C@H](CC(C)C)NC(=O)[C@H](CCCNC(=N)N)NC(=O)[C@H](CO)NC(=O)[C@@H](NC(=O)[C@H](C)NC(=O)[C@@H]1CSSC[C@H](NC(=O)[C@H](CCCNC(=N)N)NC(=O)CC[C@H](NC(=O)CCCCCCCCCCCCCCCCCCC(=O)O)C(=O)O)C(=O)N[C@@H](CC(=O)O)C(=O)N[C@@H]([C@@H](C)O)C(=O)N[C@@H](C)C(=O)N[C@@H]([C@@H](C)O)C(=O)N1)[C@@H](C)O [Compound 138, [19CD]-isoGlu-RC()DTATC()ATSRLAEFLHRSSSSF-Gly(Me)-A-Ile(Me)-LSSTEVGSETP-NH2] ({C20 diacid-γGlu}-RCDTATCATSRLAEFLHRSSSSF[Sar]A[NMeI]LSSTEVGSETP-NH2; disulfide 2-7) | SS (SS indicates solubility ≥ 1mg/ml) | SS (SS indicates solubility ≥ 1mg/ml) | SS (SS indicates solubility ≥ 1mg/ml) | SS (SS indicates solubility ≥ 1mg/ml) | SS (SS indicates solubility ≥ 1mg/ml) | SS (SS indicates solubility ≥ 1mg/ml) | SS (SS indicates solubility ≥ 1mg/ml) | 0.23 | 0.34

Source: patent EP3046573B1, “AMYLIN ANALOGUES” (Zealand Pharma A/S, priority 2013, dated 2015)
